Reference: ChEMBL document CHEMBL6103578, “Design and synthesis three novel series of derivatives using natural acetylcholinesterase inhibitor-RLMS as template and in vitro, in vivo and in silico activities verification” (Eur J Med Chem, 2025)

Tests used:
Acetylcholinesterase = Acetylcholinesterase (Homo sapiens, UniProt P22303); assay: Inhibition of AChE (unknown origin) using ATCI as substrate preincubated for 20 mins followed by substrate addition measured after 30 mins by DTNB assay
SH-SY5Y [1] = assay: Neuroprotective effect against H2O2-induced cell injury in human SH-SY5Y cells assessed as cell survival at 25 to 100 uM preincubated for 1 hr followed by H2O2 addition measured after 2 hrs by MTT assay (reference value: 57.76 %); assay type: functional; settings: dose 25-100 µM, time 3 hrs
SH-SY5Y [2] = assay: Neuroprotective effect against H2O2-induced cell injury in human SH-SY5Y cells assessed as cell survival at 25 uM preincubated for 1 hr followed by H2O2 addition measured after 2 hrs by MTT assay (reference value: 57.76 %); assay type: functional; settings: time 3 hrs, read-out: Activity

Acetylcholinesterase, sequence (P22303 whole entry): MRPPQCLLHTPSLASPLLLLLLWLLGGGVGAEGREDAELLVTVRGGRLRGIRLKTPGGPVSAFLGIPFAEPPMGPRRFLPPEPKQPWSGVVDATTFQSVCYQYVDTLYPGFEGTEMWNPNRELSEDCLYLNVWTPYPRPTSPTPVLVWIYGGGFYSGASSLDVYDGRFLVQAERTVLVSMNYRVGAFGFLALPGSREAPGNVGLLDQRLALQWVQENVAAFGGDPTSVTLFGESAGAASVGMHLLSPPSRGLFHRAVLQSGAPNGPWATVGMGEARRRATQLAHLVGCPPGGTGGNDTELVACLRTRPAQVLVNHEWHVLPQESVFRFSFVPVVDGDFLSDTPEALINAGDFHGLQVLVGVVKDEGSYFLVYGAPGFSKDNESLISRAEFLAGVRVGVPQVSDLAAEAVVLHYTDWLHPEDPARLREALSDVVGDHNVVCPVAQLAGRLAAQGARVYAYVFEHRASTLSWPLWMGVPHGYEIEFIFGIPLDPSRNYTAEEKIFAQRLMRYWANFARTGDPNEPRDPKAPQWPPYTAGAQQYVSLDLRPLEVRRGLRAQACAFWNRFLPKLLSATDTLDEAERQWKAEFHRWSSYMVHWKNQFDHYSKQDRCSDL

Row | SMILES | IC50 (Acetylcholinesterase) [µM] | Activity (SH-SY5Y [1]) [%] | viability at 25 µM (SH-SY5Y [2]) [%]
1 | C[C@@H]1CC[C@]2(C(=O)O)CC[C@]3(C)C(=CC[C@@H]4[C@@]5(C)C(C=O)=C[C@@](C)(COC(=O)c6ccc(Cl)cc6)[C@@H]5CC[C@]43C)[C@@H]2[C@]1(C)OC(=O)c1ccc(Cl)cc1 | > 100 | >57.76 | 
2 | C[C@@H]1CC[C@]2(C(=O)O)CC[C@]3(C)C(=CC[C@@H]4[C@@]5(C)C(C=O)=C[C@@](C)(COC(=O)CCc6ccccc6)[C@@H]5CC[C@]43C)[C@@H]2[C@]1(C)O | 46.2 | >57.76 | 
3 | C[C@@H]1CC[C@]2(C(=O)O)CC[C@]3(C)C(=CC[C@@H]4[C@@]5(C)C[C@@H](O)[C@H](O)[C@@](C)(CO)[C@@H]5CC[C@]43C)[C@@H]2[C@]1(C)O | 23.2 | >57.76 | 72.8
4 | C[C@@H]1CC[C@]2(C(=O)NCc3ccc(Cl)cc3)CC[C@]3(C)C(=CC[C@@H]4[C@@]5(C)C[C@@H](O)[C@H](O)[C@@](C)(CO)[C@@H]5CC[C@]43C)[C@@H]2[C@]1(C)O | 64.8 | >57.76 | 
5 | C[C@@H]1CC[C@]2(C(=O)NCc3ccccc3F)CC[C@]3(C)C(=CC[C@@H]4[C@@]5(C)C[C@@H](O)[C@H](O)[C@@](C)(CO)[C@@H]5CC[C@]43C)[C@@H]2[C@]1(C)O | > 100 | <57.76 | 
6 | CCCCCCNC(=O)[C@]12CC[C@@H](C)[C@@](C)(O)[C@H]1C1=CC[C@@]3(C)[C@@](C)(CC[C@H]4[C@](C)(CO)[C@@H](O)[C@H](O)C[C@@]43C)[C@]1(C)CC2 | > 100 | >57.76 | 
7 | C[C@@H]1CC[C@]2(C(=O)O)CC[C@]3(C)C(=CC[C@@H]4[C@@]5(C)C[C@@H](OC(=O)c6ccc(Cl)cc6)[C@H](O)[C@@](C)(CO)[C@@H]5CC[C@]43C)[C@@H]2[C@]1(C)OC(=O)c1ccc(Cl)cc1 | 54.3 | <57.76 | 
8 | COc1ccc(C(=O)OC[C@]2(C)C=C(C=O)[C@@]3(C)[C@H]2CC[C@]2(C)[C@@H]3CC=C3[C@H]4[C@](C(=O)O)(CC[C@@H](C)[C@@]4(C)OC(=O)c4ccc(OC)cc4)CC[C@]32C)cc1 | 70.2 | >57.76 | 
9 | C[C@@H]1CC[C@]2(C(=O)O)CC[C@]3(C)C(=CC[C@@H]4[C@@]5(C)C[C@@H](O)[C@H](OC(=O)c6ccc(C(F)(F)F)cc6)[C@@](C)(CO)[C@@H]5CC[C@]43C)[C@@H]2[C@]1(C)O | > 100 | >57.76 | 
10 | C[C@@H]1CC[C@]2(C(=O)NCc3ccccc3Br)CC[C@]3(C)C(=CC[C@@H]4[C@@]5(C)C[C@@H](O)[C@H](O)[C@@](C)(CO)[C@@H]5CC[C@]43C)[C@@H]2[C@]1(C)O | 47.7 | >57.76 | 
11 | Cc1c(C)c2c(c(C)c1O)CCC(C)(C(=O)O)O2 (centres undefined) [TROLOX] |  | >57.76 | 72.6
12 | COc1ccc(C(=O)O[C@]2(C)[C@H](C)CC[C@]3(C(=O)O)CC[C@]4(C)C(=CC[C@@H]5[C@@]6(C)C[C@@H](O)[C@H](O)[C@@](C)(CO)[C@@H]6CC[C@]54C)[C@@H]32)cc1 | 63.5 | >57.76 | 72.5
13 | C[C@@H]1CC[C@]2(C(=O)O)CC[C@]3(C)C(=CC[C@@H]4[C@@]5(C)C(C=O)=C[C@@](C)(COC(=O)c6ccc(C(F)(F)F)cc6)[C@@H]5CC[C@]43C)[C@@H]2[C@]1(C)O | > 100 | >57.76 | 
14 | C[C@@H]1CC[C@]2(C(=O)O)CC[C@]3(C)C(=CC[C@@H]4[C@@]5(C)C(C=O)=C[C@@](C)(COC(=O)c6ccc(F)cc6)[C@@H]5CC[C@]43C)[C@@H]2[C@]1(C)O | 71.9 | <57.76 | 
15 | C[C@@H]1CC[C@]2(C(=O)NC3CCCCC3)CC[C@]3(C)C(=CC[C@@H]4[C@@]5(C)C[C@@H](O)[C@H](O)[C@@](C)(CO)[C@@H]5CC[C@]43C)[C@@H]2[C@]1(C)O | 80.4 | >57.76 | 
16 | COc1ccc(C(=O)O[C@]2(C)[C@H](C)CC[C@]3(C(=O)O)CC[C@]4(C)C(=CC[C@@H]5[C@@]6(C)C(C=O)=C[C@@](C)(CO)[C@@H]6CC[C@]54C)[C@@H]32)cc1 | > 100 | >57.76 | 
